# Source: patent US20060258671A1, “Phenylpyridylpiperazine compounds” (priority 2005, published 2006)
# Target: T1, type H3 central histamine receptors (Mus musculus, UniProt P58406)
# T1 construct: from tissue; host or cells: brain of living NMRI mice, treated in vivo; brains removed afterwards for the metabolite RIA
# Assay: Cerebral levels of Nτ-methylhistamine in the NMRI mouse (ex vivo, RIA)
# Details: one hour after treatment
# Description: The purpose of this study, which was carried out in accordance with the method of Taylor et al. (Biochem. Pharm., 1992, 44, 1261-1267), is to evaluate the ex vivo activity of the compounds of the present invention as antagonists of type H3 central histamine receptors. […] An increase in the cerebral concentrations of N^τ-methylhistamine indicates an increase in the turn-over of histamine by blockage of the type H3 central histamine receptors.
# NMRI mice (18-20 g) are treated intraperitoneally or orally with compounds of the present invention or with their carrier (20 ml/kg). One hour after the pharmacological treatment, the animals are sacrificed, and their brains are removed, frozen in liquid nitrogen, weighed and homogenised in 0.1N HClO4 at 4° C. The homogenised products are centrifuged (15 000 g, 17 min, 4° C.). The supernatants are recovered and divided into aliquots. The aliquots are frozen in liquid nitrogen and stored at −80° C. until analysis.
# Determination of the cerebral levels of N′-methylhistamine is carried out by radio-immunological assay (RIA) using an assay kit. The tissue levels of N^τ-methylhistamine are expressed in μg/g of fresh brain. […]
# T1 sequence (P58406 whole entry): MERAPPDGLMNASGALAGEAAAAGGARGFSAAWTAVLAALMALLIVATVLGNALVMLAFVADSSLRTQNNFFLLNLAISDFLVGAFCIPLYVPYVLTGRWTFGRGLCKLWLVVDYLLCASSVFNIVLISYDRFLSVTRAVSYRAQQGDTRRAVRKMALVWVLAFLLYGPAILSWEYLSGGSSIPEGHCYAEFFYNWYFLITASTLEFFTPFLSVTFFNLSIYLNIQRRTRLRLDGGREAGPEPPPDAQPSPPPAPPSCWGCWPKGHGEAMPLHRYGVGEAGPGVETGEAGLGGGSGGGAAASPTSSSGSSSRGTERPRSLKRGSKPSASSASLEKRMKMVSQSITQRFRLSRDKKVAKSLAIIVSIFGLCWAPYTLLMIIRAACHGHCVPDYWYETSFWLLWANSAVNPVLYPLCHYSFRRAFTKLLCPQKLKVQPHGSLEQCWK
increase in the endogenous cerebral concentrations of Nτ-methylhistamine (10 mg/kg PO) [%],increase in the endogenous cerebral concentrations of Nτ-methylhistamine (3 mg/kg PO) [%],Structure (SMILES)
162,–,"CS(=O)(=O)Nc1ccc(-c2ccc(N3CCN(C4CC4)CC3)nc2)cc1.Cl.Cl [Example 4, N-{4-[6-(4-Cyclopropylpiperazin-1-yl)pyridin-3-yl]phenyl}methane-sulphonamide dihydrochloride]"
–,138,"CC(C)N1CCN(c2ccc(-c3ccc(NS(=O)(=O)C(C)C)cc3)cn2)CC1.Cl.Cl [Example 7, N-{4-[6(4-Isopropylpiperazin-1-yl)pyridin-3-yl]phenyl}propane-2-sulphonamide dihydrochloride]"
